Consider one compound from patent publication US6492404B1, “Thiazolylcinnamonitriles and pest controlling agents” (Nippon Soda Co., Ltd., priority 1998, dated 2002).

In the data set the test system is Pseudaletia separata Walker. The data set can be described thus: Effects on Pseudaletia separata Walker (corn leaf immersion, third instar larvae). Particulars: wettable powder diluted to 125 ppm, corn leaves immersed 30 seconds, 25° C., 65% RH, assessed 6 days after treatment. The data set is classed as in vivo. The method, then: Effects on Pseudaletia separata Walker
According to the instructions of the wettable powder described in the above Example 2, a wettable powder was diluted with water to make the compound concentration 125 ppm. Corn leaves were immersed in the solution for 30 seconds, air-dried and placed in a Petri dish containing 5 third instar larvae of Pseudaletia separata Walker. The dish was covered with a glass lid and placed in a thermostatic chamber of temperature of 25° C. and relative humidity of 65%. Mortality was assessed 6 days after treatment. Each test was replicated twice.

The structures appear in SMILES notation.

What is called mortality is the share of the test organisms that died. A higher mortality goes with fewer survivors. Compound `Cc1cc(Cl)ccc1N=CN(C)C` [Chlordimeform] gave a mortality of 40%.
